# Measurements: ChEMBL document CHEMBL1268934, “Design, synthesis, and subtype selectivity of 3,6-disubstituted β-carbolines at Bz/GABA(A)ergic receptors. SAR and studies directed toward agents for treatment of alcohol abuse” (Bioorg Med Chem, 2010)
# pKi: −log10 of the molar value.
# What was measured:
# Format in all cases: cell-based, HEK293
# [1] = molecular target: T1, GABA-A receptor; alpha-1/beta-3/gamma-2 (Homo sapiens, UniProt P14867+P18507+P28472); assay: Displacement of [3H]flunitrazepam from human recombinant GABAA alpha-1-beta-3-gamma-2 receptor expressed in HEK cells by liquid scintillation counting
# T1 sequence (P14867 whole entry): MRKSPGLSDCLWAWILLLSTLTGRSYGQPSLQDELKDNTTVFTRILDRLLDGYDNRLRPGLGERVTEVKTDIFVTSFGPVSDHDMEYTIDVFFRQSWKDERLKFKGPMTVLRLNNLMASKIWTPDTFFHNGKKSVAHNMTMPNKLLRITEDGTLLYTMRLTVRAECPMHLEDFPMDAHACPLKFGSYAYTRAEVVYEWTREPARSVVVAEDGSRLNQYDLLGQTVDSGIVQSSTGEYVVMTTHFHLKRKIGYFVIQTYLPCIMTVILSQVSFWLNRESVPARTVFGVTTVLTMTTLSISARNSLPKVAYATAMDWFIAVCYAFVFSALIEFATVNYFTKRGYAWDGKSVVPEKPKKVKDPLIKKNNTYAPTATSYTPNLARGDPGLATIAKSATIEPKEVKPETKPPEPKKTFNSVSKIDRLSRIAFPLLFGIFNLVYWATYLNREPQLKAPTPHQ
# T1 sequence (P18507 whole entry): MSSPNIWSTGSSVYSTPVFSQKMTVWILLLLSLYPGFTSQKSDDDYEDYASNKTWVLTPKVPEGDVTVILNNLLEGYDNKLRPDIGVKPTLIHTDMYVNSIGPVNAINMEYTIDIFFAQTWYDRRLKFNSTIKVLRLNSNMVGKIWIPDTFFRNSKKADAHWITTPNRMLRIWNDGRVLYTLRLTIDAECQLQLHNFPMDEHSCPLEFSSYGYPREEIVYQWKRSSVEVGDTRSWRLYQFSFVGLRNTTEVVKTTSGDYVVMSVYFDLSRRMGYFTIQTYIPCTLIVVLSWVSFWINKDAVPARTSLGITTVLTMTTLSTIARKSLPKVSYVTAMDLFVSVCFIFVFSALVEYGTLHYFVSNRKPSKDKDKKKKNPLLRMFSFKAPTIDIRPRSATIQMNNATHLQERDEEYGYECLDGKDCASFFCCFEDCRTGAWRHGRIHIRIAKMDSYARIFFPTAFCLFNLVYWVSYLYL
# T1 sequence (P28472 whole entry): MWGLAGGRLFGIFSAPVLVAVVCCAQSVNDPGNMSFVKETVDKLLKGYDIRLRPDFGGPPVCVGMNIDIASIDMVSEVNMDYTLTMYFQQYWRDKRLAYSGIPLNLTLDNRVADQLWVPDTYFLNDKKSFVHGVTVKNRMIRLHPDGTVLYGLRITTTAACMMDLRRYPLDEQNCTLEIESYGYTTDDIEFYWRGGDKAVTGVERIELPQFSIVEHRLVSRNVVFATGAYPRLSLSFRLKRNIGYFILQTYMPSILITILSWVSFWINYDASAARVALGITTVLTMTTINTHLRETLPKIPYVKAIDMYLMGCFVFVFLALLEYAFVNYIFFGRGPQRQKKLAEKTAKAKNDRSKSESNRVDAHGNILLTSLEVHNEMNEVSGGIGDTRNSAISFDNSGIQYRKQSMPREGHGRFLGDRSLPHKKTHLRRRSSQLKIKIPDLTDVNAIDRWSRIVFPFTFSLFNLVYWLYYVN
# [2] = molecular target: T2, GABA-A receptor; alpha-2/beta-3/gamma-2 (Homo sapiens, UniProt P18507+P28472+P47869); assay: Displacement of [3H]flunitrazepam from human recombinant GABAA alpha-2-beta-3-gamma-2 receptor expressed in HEK cells by liquid scintillation counting
# T2 sequence (P18507 whole entry): T1 sequence (P18507 whole entry)
# T2 sequence (P28472 whole entry): T1 sequence (P28472 whole entry)
# T2 sequence (P47869 whole entry): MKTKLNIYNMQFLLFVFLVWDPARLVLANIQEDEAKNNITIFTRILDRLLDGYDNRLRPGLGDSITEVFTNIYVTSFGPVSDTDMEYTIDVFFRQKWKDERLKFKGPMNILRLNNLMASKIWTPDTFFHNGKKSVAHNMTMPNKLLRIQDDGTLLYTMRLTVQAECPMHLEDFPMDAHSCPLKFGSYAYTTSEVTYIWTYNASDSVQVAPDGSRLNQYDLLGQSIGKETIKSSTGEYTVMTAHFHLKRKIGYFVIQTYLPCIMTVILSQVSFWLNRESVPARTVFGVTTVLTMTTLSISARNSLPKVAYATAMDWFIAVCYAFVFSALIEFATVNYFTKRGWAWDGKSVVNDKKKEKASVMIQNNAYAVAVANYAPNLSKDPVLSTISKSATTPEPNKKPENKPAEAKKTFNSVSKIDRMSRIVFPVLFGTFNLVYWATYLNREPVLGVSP
# [3] = molecular target: T3, GABA-A receptor; alpha-3/beta-3/gamma-2 (Homo sapiens, UniProt P18507+P28472+P34903); assay: Displacement of [3H]flunitrazepam from human recombinant GABAA alpha-3-beta-3-gamma-2 receptor expressed in HEK cells by liquid scintillation counting
# T3 sequence (P18507 whole entry): T1 sequence (P18507 whole entry)
# T3 sequence (P28472 whole entry): T1 sequence (P28472 whole entry)
# T3 sequence (P34903 whole entry): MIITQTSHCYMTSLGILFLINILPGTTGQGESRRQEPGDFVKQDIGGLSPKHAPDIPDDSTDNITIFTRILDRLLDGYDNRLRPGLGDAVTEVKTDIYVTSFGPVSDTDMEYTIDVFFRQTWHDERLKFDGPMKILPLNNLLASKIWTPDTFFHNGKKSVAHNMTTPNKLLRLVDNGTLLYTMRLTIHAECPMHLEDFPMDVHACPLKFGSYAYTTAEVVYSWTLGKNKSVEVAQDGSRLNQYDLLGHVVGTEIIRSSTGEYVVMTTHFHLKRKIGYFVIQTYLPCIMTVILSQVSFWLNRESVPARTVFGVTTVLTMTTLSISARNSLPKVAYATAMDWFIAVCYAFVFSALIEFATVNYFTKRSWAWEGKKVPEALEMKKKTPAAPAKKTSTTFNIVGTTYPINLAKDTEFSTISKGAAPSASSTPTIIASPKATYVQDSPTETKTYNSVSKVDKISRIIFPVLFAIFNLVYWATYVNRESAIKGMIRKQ
# [4] = molecular target: T4, GABA-A receptor; alpha-5/beta-3/gamma-2 (Homo sapiens, UniProt P18507+P28472+P31644); assay: Displacement of [3H]flunitrazepam from human recombinant GABAA alpha-5-beta-3-gamma-2 receptor expressed in HEK cells by liquid scintillation counting
# T4 sequence (P18507 whole entry): T1 sequence (P18507 whole entry)
# T4 sequence (P28472 whole entry): T1 sequence (P28472 whole entry)
# T4 sequence (P31644 whole entry): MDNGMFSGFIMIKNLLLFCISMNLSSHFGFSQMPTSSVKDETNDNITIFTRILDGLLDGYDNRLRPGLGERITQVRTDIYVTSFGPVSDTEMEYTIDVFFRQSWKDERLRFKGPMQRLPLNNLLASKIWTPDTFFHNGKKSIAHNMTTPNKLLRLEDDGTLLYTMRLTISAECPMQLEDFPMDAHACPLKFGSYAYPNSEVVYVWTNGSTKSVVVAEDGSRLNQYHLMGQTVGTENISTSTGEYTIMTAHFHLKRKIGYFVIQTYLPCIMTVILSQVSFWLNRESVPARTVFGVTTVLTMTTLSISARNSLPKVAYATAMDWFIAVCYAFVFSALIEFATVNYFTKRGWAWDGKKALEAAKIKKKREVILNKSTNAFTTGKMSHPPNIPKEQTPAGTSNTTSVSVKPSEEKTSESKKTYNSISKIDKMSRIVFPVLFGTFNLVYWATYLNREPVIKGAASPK
# [5] = molecular target: GABA A receptor alpha-4/beta-3/gamma-2 (Homo sapiens, UniProt P18507+P28472+P48169); assay: Displacement of [3H]flunitrazepam from human recombinant GABAA alpha-4-beta-3-gamma-2 receptor expressed in HEK cells by liquid scintillation counting; details: hek293
# GABA A receptor alpha-4/beta-3/gamma-2, sequence (P48169 whole entry, one chain of several): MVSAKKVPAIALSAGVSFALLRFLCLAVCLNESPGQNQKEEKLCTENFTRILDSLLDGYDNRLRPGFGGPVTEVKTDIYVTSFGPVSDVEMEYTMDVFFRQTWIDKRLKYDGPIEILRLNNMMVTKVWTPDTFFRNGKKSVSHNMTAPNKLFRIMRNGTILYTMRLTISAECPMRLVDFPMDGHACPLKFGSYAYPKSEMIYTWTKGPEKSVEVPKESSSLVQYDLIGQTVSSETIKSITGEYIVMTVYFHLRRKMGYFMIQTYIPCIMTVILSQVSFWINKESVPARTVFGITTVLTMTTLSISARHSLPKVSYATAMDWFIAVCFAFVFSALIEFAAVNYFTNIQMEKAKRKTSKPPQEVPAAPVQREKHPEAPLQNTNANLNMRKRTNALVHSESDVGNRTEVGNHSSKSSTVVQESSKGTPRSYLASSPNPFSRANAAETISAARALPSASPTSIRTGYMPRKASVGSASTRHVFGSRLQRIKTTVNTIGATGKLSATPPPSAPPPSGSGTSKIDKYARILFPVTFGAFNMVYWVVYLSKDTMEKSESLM
# [6] = molecular target: GABA-A receptor; alpha-6/beta-3/gamma-2 (Homo sapiens, UniProt P18507+P28472+Q16445); assay: Displacement of [3H]flunitrazepam from human recombinant GABAA alpha-6-beta-3-gamma-2 receptor expressed in HEK cells by liquid scintillation counting
# GABA-A receptor; alpha-6/beta-3/gamma-2, sequence (Q16445 whole entry, one chain of several): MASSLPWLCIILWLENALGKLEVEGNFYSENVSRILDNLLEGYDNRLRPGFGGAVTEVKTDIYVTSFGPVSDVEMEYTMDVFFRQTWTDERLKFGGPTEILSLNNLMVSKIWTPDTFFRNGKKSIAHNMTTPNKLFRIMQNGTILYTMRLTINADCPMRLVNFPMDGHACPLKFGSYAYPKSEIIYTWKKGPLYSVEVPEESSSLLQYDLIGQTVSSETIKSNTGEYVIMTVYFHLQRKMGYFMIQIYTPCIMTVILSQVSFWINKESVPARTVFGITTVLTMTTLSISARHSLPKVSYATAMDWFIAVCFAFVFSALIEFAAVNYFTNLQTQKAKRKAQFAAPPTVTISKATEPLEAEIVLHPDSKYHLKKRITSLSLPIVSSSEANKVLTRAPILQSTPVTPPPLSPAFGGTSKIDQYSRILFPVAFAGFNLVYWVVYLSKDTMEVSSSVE
smiles,measurement,setting,value
O=C(OCC(F)(F)F)c1cc2c(cn1)[nH]c1ccc(I)cc12,pKi,[1],7.92
same,pKi,[2],7.41
same,pKi,[3],7.33
same,pKi,[4],6.91
O=C(OC(C(F)(F)F)C(F)(F)F)c1cc2c(cn1)[nH]c1ccc(I)cc12,pKi,[1],7.11
same,pKi,[2],6.52
same,pKi,[3],6.88
same,pKi,[4],6.17
O=C(OCC(Cl)(Cl)Cl)c1cc2c(cn1)[nH]c1ccccc12,pKi,[1],8.00
same,pKi,[2],7.48
same,pKi,[3],7.37
same,pKi,[4],6.72
CC(C)(C)OC(=O)c1cc2c(cn1)[nH]c1ccc(-c3ccccc3)cc12,pKi,[1],8.44
same,pKi,[2],8.69
same,pKi,[3],7.35
same,Ki,[5],Not Active
same,pKi,[4],7.12
CC(OC(=O)c1cc2c(cn1)[nH]c1ccccc12)c1ccccc1 (centres undefined),pKi,[1],7.47
O=C(OCC(F)(F)F)c1cc2c(cn1)[nH]c1ccc(-c3ccco3)cc12,pKi,[1],7.59
same,pKi,[2],6.84
same,pKi,[3],6.93
same,pKi,[4],6.90
CC(C)(C)OC(=O)c1cc2c3cc(I)ccc3n(C(=O)OC(C)(C)C)c2cn1,pKi,[4],5.73
O=C(OC(C(F)(F)F)C(F)(F)F)c1cc2c(cn1)[nH]c1ccccc12,pKi,[1],8.40
same,pKi,[2],8.10
same,pKi,[3],7.49
same,pKi,[4],6.34
C#Cc1ccc2c(c1)c1cc(C(=O)OC(C)(C)C)ncc1n2C(=O)OC(C)(C)C,pKi,[1],6.35
"CCC(C)OC(=O)c1cc2c(cn1)[nH]c1ccccc12 (single isomer, unassigned)",Ki,[5],Not Active
C#Cc1ccc2[nH]c3cnc(C(=O)OC(C)(C)C)cc3c2c1,pKi,[1],9.01
same,pKi,[6],5.70
CCOC(=O)c1cc2c(cn1)[nH]c1ccc(I)cc12,pKi,[1],8.32
same,pKi,[2],7.51
same,pKi,[3],7.47
same,pKi,[4],6.54
CCCCOc1cc2c(cn1)[nH]c1ccccc12,pKi,[6],6.00
O=C(Oc1cc(F)c(F)cc1F)c1cc2c(cn1)[nH]c1ccccc12,pKi,[1],7.66
same,pKi,[2],6.75
same,pKi,[3],7.35
same,pKi,[4],6.37
CC(C)(C)OC(=O)c1cc2c(cn1)[nH]c1ccc(-c3cccs3)cc12,pKi,[1],7.43
same,pKi,[2],6.78
same,pKi,[3],6.50
same,Ki,[5],Not Active
same,pKi,[4],5.54
CC(C)(C)OC(=O)c1cc2c(cn1)[nH]c1ccc(C#C[Si](C)(C)C)cc12,pKi,[1],8.17
same,pKi,[2],7.52
same,pKi,[3],7.44
same,pKi,[4],6.97
CC(C)(C)OC(=O)c1cc2c(cn1)[nH]c1ccc(C(C)(C)C)cc12,pKi,[1],8.56
same,pKi,[2],8.05
same,pKi,[3],7.61
same,pKi,[4],8.13
C#Cc1ccc2[nH]c3cnc(C(=O)OCC(F)(F)F)cc3c2c1,pKi,[1],8.35
same,pKi,[2],7.35
same,pKi,[3],7.37
same,pKi,[4],6.91
CCOC(=O)c1cc2c(cn1)[nH]c1ccc(C#C[Si](C)(C)C)cc12,pKi,[1],8.36
same,pKi,[2],8.35
same,pKi,[3],8.25
same,pKi,[4],7.33
CC(C)(C)OC(=O)c1cc2c(cn1)[nH]c1ccc(-c3ccco3)cc12,pKi,[1],8.62
same,pKi,[2],7.89
same,pKi,[3],7.56
same,Ki,[5],Not Active
same,pKi,[4],6.79
O=C(OCC(F)(F)F)c1cc2c(cn1)[nH]c1ccc(-c3cccs3)cc12,pKi,[1],8.04
same,pKi,[2],7.89
same,pKi,[3],7.14
same,pKi,[4],6.35
O=C(OCC(F)(F)F)c1cc2c(cn1)[nH]c1ccc(-c3ccccc3)cc12,pKi,[1],7.60
same,pKi,[2],6.86
same,pKi,[3],6.90
same,pKi,[4],6.52
CC(C)(C)OC(=O)c1cc2c(cn1)[nH]c1ccc(F)cc12,pKi,[1],8.79
same,pKi,[2],8.34
same,pKi,[3],7.83
same,pKi,[4],8.34
CC(C)(C)OC(=O)c1cc2c(cn1)[nH]c1ccc(C#CC#Cc3ccc4[nH]c5cnc(C(=O)OC(C)(C)C)cc5c4c3)cc12,pKi,[1],6.92
same,pKi,[2],5.98
same,pKi,[3],5.40
CC/C=C/C=C/Oc1cc2c(cn1)[nH]c1ccccc12,pKi,[1],6.61
same,pKi,[2],6.09
same,pKi,[3],6.07
